# US20240409585A1, “MACROCYCLIC IMMUNOMODULATORS” (priority 2021, published 2024)
# Bridge positions count the residues as written; N and C are the ends. Square brackets hold non-standard residues; d marks the D form. Peptide text beside a SMILES is read from it. * marks the point of attachment. Phe(4-COOH) = N[C@@H](Cc1ccc(C(=O)O)cc1)C(=O)O; Bip = N[C@@H](Cc1ccc(-c2ccccc2)cc1)C(=O)O; dPhe(4-Cl) = N[C@H](Cc1ccc(Cl)cc1)C(=O)O; Phe(3-Me) = Cc1cccc(C[C@H](N)C(=O)O)c1; Val(3-OH) = CC(C)(O)[C@H](N)C(=O)O; 2Thi = N[C@@H](Cc1cccs1)C(=O)O; Cha = N[C@@H](CC1CCCCC1)C(=O)O; Carboxymethyl = O=C(O)C*; NMeA = CN[C@@H](C)C(=O)O; Orn = NCCC[C@H](N)C(=O)O; Dab = NCC[C@H](N)C(=O)O; Piv = CC(C)(C)C(=O)*
# Target: T1, PE-labeled human PD-L1-Ig binding to Jurkat cell line over-expressing human PD-1 (Jurkat-PD-1) (Homo sapiens, UniProt Q15116)
# T1 construct: expressed in transfected cells; host or cells: Jurkat
# T1 sequence (Q15116 25-288): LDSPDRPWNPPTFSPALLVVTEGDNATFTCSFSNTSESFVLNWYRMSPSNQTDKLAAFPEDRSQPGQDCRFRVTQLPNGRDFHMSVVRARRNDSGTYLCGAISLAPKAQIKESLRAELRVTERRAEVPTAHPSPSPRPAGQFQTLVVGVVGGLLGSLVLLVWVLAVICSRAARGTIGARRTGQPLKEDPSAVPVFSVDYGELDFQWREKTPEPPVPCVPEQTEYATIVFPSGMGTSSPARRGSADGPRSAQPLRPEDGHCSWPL
# Experiment: Jurkat-PD-1 Cell Binding High-Content Screening Assay (CBA): Method 1
# Settings: Jurkat-hPD-1 cells, PE-labeled PD-L1-Ig 20 nM final; read-out: Jurkat HPDL1 PD1 IC50 (uM) (Method 1)
row,SMILES,IC50 [µM]
1,Cc1cccc(C[C@@H]2NC(=O)[C@H](CC(=O)O)NC(=O)[C@H](Cc3ccc(OCC(=O)O)cc3)NC(=O)[C@H](Cc3ccc(OCC(=O)O)cc3)NC(=O)CSC[C@@H](C(N)=O)NC(=O)[C@H](CCCN)NC(=O)[C@H](C(C)C)NC(=O)[C@H](CC3CCCCC3)NC(=O)[C@H](CCN)NC(=O)[C@@H](CC(C)C)NC(=O)[C@H](C)N(C)C(=O)[C@H](Cc3ccc(OCC(=O)O)cc3)NC(=O)[C@H](Cc3ccc(-c4ccccc4)cc3)NC(=O)[C@H](Cc3ccc(OCC(=O)O)cc3)NC2=O)c1 [Compound 1652] ({CH2CO}-Y(Carboxymethyl)Y(Carboxymethyl)D[Phe(3-Me)]Y(Carboxymethyl)[Bip]Y(Carboxymethyl)[NMeA][dL][Dab][Cha]V[Orn]C-NH2; thioether N-14),0.03
2,CC(C)C[C@@H]1NC(=O)[C@H](CCCNC(=N)N)NC(=O)[C@@H]([C@H](C)O)NC(=O)[C@H](C)N(C)C(=O)[C@H](CCCNC(=N)N)NC(=O)[C@H](Cc2ccc(-c3ccccc3)cc2)NC(=O)[C@H](C(C)C)NC(=O)[C@H](Cc2c[nH]c3ccccc23)NC(=O)[C@H](CC(=O)O)NC(=O)[C@H](Cc2ccc(O)cc2)NC(=O)[C@H](Cc2ccccc2)NC(=O)CSC[C@@H](C(=O)N[C@@H](C)C(N)=O)NC(=O)[C@H]([C@@H](C)O)NC(=O)[C@H](C(C)C)NC1=O [Compound 1058] ({CH2CO}-FYDWV[Bip]R[NMeA][dT]RLVTCA-NH2; thioether N-14),0.91
3,Cc1cccc(C[C@@H]2NC(=O)[C@H](CC(=O)O)NC(=O)[C@H](Cc3ccc(OCC(=O)O)cc3)NC(=O)[C@H](Cc3cccs3)NC(=O)CSC[C@@H](C(=O)N[C@@H](CCNC(=O)C(C)(C)C)C(N)=O)NC(=O)[C@H](Cc3cnc[nH]3)NC(=O)[C@H](C(C)(C)O)NC(=O)[C@H](CC3CCCCC3)NC(=O)[C@H](CCN)NC(=O)[C@@H](CC(C)C)NC(=O)[C@H](C)N(C)C(=O)[C@H](Cc3ccc(OCC(=O)O)cc3)NC(=O)[C@H](Cc3ccc(-c4ccccc4)cc3)NC(=O)[C@H](Cc3ccc(C(=O)O)cc3)NC2=O)c1 [Compound 2166] ({CH2CO}-[2Thi]Y(Carboxymethyl)D[Phe(3-Me)][Phe(4-COOH)][Bip]Y(Carboxymethyl)[NMeA][dL][Dab][Cha][Val(3-OH)]HC[Dab](Piv)-NH2; thioether N-14),0.02
4,CC[C@H](C)[C@@H]1NC(=O)[C@H](Cc2ccc(-c3ccccc3)cc2)NC(=O)[C@H](C(C)(C)O)NC(=O)[C@H](Cc2cccc(C)c2)NC(=O)[C@H](CC(=O)O)NC(=O)[C@H](Cc2ccc(O)cc2)NC(=O)[C@H](CC(N)=O)NC(=O)CSC[C@@H](C(=O)N[C@H](C)C(N)=O)NC(=O)[C@H](CCC(=O)O)NC(=O)[C@H](C(C)C)NC(=O)[C@H](CC2CCCCC2)NC(=O)[C@H](CCN)NC(=O)[C@@H](CC(C)C)NC(=O)[C@H](C)N(C)C1=O [Compound 1698] ({CH2CO}-NYD[Phe(3-Me)][Val(3-OH)][Bip]I[NMeA][dL][Dab][Cha]VEC[dA]-NH2; thioether N-14),0.1
5,CC(C)C[C@@H]1NC(=O)[C@H](CCCNC(=N)N)NC(=O)[C@@H](Cc2ccc(Cl)cc2)NC(=O)[C@H](C)N(C)C(=O)[C@H](CCCNC(=N)N)NC(=O)[C@H](Cc2ccc(-c3ccccc3)cc2)NC(=O)[C@H](C(C)C)NC(=O)[C@H](Cc2c[nH]c3ccccc23)NC(=O)[C@H](CC(=O)O)NC(=O)[C@H](Cc2ccc(O)cc2)NC(=O)[C@H](Cc2ccccc2)NC(=O)CSC[C@@H](C(=O)N[C@@H](C)C(N)=O)NC(=O)[C@H]([C@@H](C)O)NC(=O)[C@H](C(C)C)NC1=O [Compound 1070] ({CH2CO}-FYDWV[Bip]R[NMeA][dPhe(4-Cl)]RLVTCA-NH2; thioether N-14),0.63
